Laboratory results from the supplement of paper PMC11061612.

Experiments:
Experiment in all cases: Bliss excess, mean over the matrix (fraction); higher = more synergy
[1] = test system: AMO-1 (Plasma Cell Myeloma)
Summary of the method: (§1)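 Cell lines in DMEM/F12 or RPMI with 10% FBS were plated in 1536-well plates, held 24 hours at 37°C, 5% CO2, then given two-drug dose matrices for 72 hours (DMSO typically 0.2%). Viability was read by CellTiter-Glo 2.0 luminescence and scaled as inhibition from 0 (vehicle wells) to 1 (blank wells). Combination Emax is the second-highest inhibition in the matrix; Bliss excess is observed combination effect minus expected EA + EB − EA·EB, EA and EB being single-agent effects.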

[2] = test system: Ca9-22 (Head and Neck Carcinoma)
Summary of the method: as §1

[3] = test system: Caov-4 (Ovarian Carcinoma)
Summary of the method: as §1

D-263MG (Glioblastoma) = test system: D-263MG (Glioblastoma)
Summary of the method: as §1

[4] = test system: EFM-19 (Breast Carcinoma)
Summary of the method: as §1

[5] = test system: Hs-766T (Pancreatic Carcinoma)
Summary of the method: as §1

NB69 (Neuroblastoma) = test system: NB69 (Neuroblastoma)
Summary of the method: as §1

[6] = test system: NCI-H358 (Lung Adenocarcinoma)
Summary of the method: as §1

[7] = test system: NCI-H727 (Other Solid Carcinomas)
Summary of the method: as §1

[8] = test system: RF-48 (B-Cell Non-Hodgkin's Lymphoma)
Summary of the method: as §1

[9] = test system: SW13 (Other Solid Carcinomas)
Summary of the method: as §1

TGW (Neuroblastoma) = test system: TGW (Neuroblastoma)
Summary of the method: as §1

YH-13 (Glioblastoma) = test system: YH-13 (Glioblastoma)
Summary of the method: as §1

| Structure (SMILES) | Bliss excess [1] | Bliss excess [2] | Bliss excess [3] | Bliss excess (D-263MG (Glioblastoma)) | Bliss excess [4] | Bliss excess [5] | Bliss excess (NB69 (Neuroblastoma)) | Bliss excess [6] | Bliss excess [7] | Bliss excess [8] | Bliss excess [9] | Bliss excess (TGW (Neuroblastoma)) | Bliss excess (YH-13 (Glioblastoma)) |
| --- | --- | --- | --- | --- | --- | --- | --- | --- | --- | --- | --- | --- | --- |
| O=C(c1cc(Cc2n[nH]c(=O)c3ccccc23)ccc1F)N1CCN(C(=O)C2CC2)CC1 [Olaparib] + Cc1c2c(nn1C)CSCc1cc(n(C)n1)CSc1cc(c3ccccc3c1)OCCCc1c(C(=O)O)n(C)c3c-2c(Cl)ccc13 [AZD5991] (first compound max 10 µM, 7x7, partner max 1 µM) | -0.0124 | 0.0247 | -0.0215 | -0.0401 | 0.0102 | -0.0818 | -0.0042 | -0.0513 | -0.0269 | -0.108 | 0.0104 | -0.032 | -0.0298 |
| O=C(c1cc(Cc2n[nH]c(=O)c3ccccc23)ccc1F)N1CCN(C(=O)C2CC2)CC1 [Olaparib] + CN(CC[C@H](CSC1=CC=CC=C1)NC2=C(C=C(C=C2)S(=O)(=O)NC(=O)C3=CC=C(C=C3)N4CCC(CC4)[C@H](C5=CC=CC=C5C6=CC=C(C=C6)Cl)O)S(=O)(=O)C(F)(F)F)CCO [AZD4320] (first compound max 10 µM, 7x7, partner max 1 µM) | -0.0111 | 0.006 | -0.0392 | -0.0672 | -0.015 | -0.0976 | 0.0663 | -0.0383 | -0.052 | 0.0454 | -0.0566 | -0.0479 | 0.0012 |
| Cc1c2c(nn1C)CSCc1cc(n(C)n1)CSc1cc(c3ccccc3c1)OCCCc1c(C(=O)O)n(C)c3c-2c(Cl)ccc13 [AZD5991] + CS(=O)(=O)CCNCc1ccc(-c2ccc3ncnc(Nc4ccc(OCc5cccc(F)c5)c(Cl)c4)c3c2)o1 [Lapatinib] (first compound max 1 µM, 7x7, partner max 10 µM) | 0.0149 | 0.0614 | 0.0835 | -0.0735 | -0.0035 | -0.0526 | 0.021 | -0.0019 | -0.0013 | -0.0917 | 0.0568 | -0.0015 | – |
| CC1(C)CCC(CN2CCN(c3ccc(C(=O)NS(=O)(=O)c4ccc(NCC5CCOCC5)c([N+](=O)[O-])c4)c(Oc4cnc5[nH]ccc5c4)c3)CC2)=C(c2ccc(Cl)cc2)C1 [Venetoclax] + CS(=O)(=O)CCNCc1ccc(-c2ccc3ncnc(Nc4ccc(OCc5cccc(F)c5)c(Cl)c4)c3c2)o1 [Lapatinib] (first compound max 1 µM, 7x7, partner max 10 µM) | 0.0614 | 0.0232 | -0.0353 | -0.0669 | -0.002 | -0.0636 | 0.0877 | -0.0321 | -0.012 | 0.0123 | -0.0672 | -0.0223 | -0.04 |
| C[C@@H](Nc1cc(F)cc(F)c1)c1cc(C(=O)N(C)C)cc2c(=O)cc(N3CCOCC3)oc12 [AZD8186] + CC(=O)c1c(C)c2cnc(Nc3ccc(N4CCNCC4)cn3)nc2n(C2CCCC2)c1=O [Palbociclib] (first compound max 10 µM, 7x7, partner max 10 µM) | 0.126 | 0.021 | 0.0078 | 0.0181 | -0.0026 | 0.006 | -0.0111 | -0.0167 | 0.0923 | 0.0054 | 0.044 | -0.0397 | 0.0183 |
| C[C@@H]1COCCN1c1cc(C2([S@](C)(=N)=O)CC2)nc(-c2ccnc3[nH]ccc23)n1 [AZD6738] + Nc1ccn([C@@H]2O[C@H](CO)[C@@H](O)C2(F)F)c(=O)n1 [Gemcitabine] (first compound max 10 µM, 7x7, partner max 0.3 µM) | 0.0048 | 0.0536 | 0.0431 | 0.102 | 0.127 | -0.0278 | 0.0147 | 0.07 | 0.0121 | 0.0277 | 0.0493 | 0.0013 | 0.0228 |
| C[C@@H](Nc1cc(F)cc(F)c1)c1cc(C(=O)N(C)C)cc2c(=O)cc(N3CCOCC3)oc12 [AZD8186] + C1CN(CCC1(C(=O)N[C@@H](CCO)C2=CC=C(C=C2)Cl)N)C3=NC=NC4=C3C=CN4 [AZD5363] (first compound max 10 µM, 7x7, partner max 10 µM) | 0.0309 | -0.0508 | -0.0338 | -0.0348 | -0.0075 | -0.0078 | 0.0248 | -0.0597 | -0.0149 | -0.033 | 0.0092 | -0.0683 | 0.0106 |
| O=C(c1cc(Cc2n[nH]c(=O)c3ccccc23)ccc1F)N1CCN(C(=O)C2CC2)CC1 [Olaparib] + COc1nnc2ccc(N3CCC(c4ccc(OCCN5CCN(C)C(=O)[C@H]5C)cc4)CC3)nn12 [AZD5153] (first compound max 10 µM, 7x7, partner max 1 µM) | -0.0334 | -0.0495 | -0.0634 | -0.057 | 0.0112 | -0.0857 | 0.0035 | -0.026 | -0.0452 | -0.0374 | -0.0183 | -0.054 | -0.0114 |
| Cc1c2c(nn1C)CSCc1cc(n(C)n1)CSc1cc(c3ccccc3c1)OCCCc1c(C(=O)O)n(C)c3c-2c(Cl)ccc13 [AZD5991] + Nc1ccn([C@@H]2O[C@H](CO)[C@@H](O)C2(F)F)c(=O)n1 [Gemcitabine] (first compound max 1 µM, 7x7, partner max 0.3 µM) | 0.0042 | 0.0042 | -0.0312 | 0.08 | 0.0744 | -0.0234 | 0.0037 | -0.0276 | -0.0394 | 0.0014 | 0.038 | 0.007 | 0.0143 |
| CS(=O)(=O)CCNCc1ccc(-c2ccc3ncnc(Nc4ccc(OCc5cccc(F)c5)c(Cl)c4)c3c2)o1 [Lapatinib] + Cn1cnc2c(F)c(Nc3ccc(Br)cc3Cl)c(C(=O)NOCCO)cc21 [Selumetinib] (first compound max 10 µM, 7x7, partner max 10 µM) | 0.0408 | 0.0498 | 0.0493 | -0.0859 | -0.0395 | -0.0652 | -0.0397 | -0.0044 | 0.0299 | -0.0137 | 0.0429 | -0.079 | -0.0095 |
| C=CCn1c(=O)c2cnc(Nc3ccc(N4CCN(C)CC4)cc3)nc2n1-c1cccc(C(C)(C)O)n1 [AZD1775] + Nc1ccn([C@@H]2O[C@H](CO)[C@@H](O)C2(F)F)c(=O)n1 [Gemcitabine] (first compound max 1 µM, partner max 0.3 µM) | 0.157 | 0.0821 | 0 | 0.0297 | 0.0061 | -0.0742 | 0.0419 | -0.0113 | -0.0278 | -0.005 | 0.0385 | -0.0355 | 0.0208 |
| O=C(c1cc(Cc2n[nH]c(=O)c3ccccc23)ccc1F)N1CCN(C(=O)C2CC2)CC1 [Olaparib] + CC1(C)CCC(CN2CCN(c3ccc(C(=O)NS(=O)(=O)c4ccc(NCC5CCOCC5)c([N+](=O)[O-])c4)c(Oc4cnc5[nH]ccc5c4)c3)CC2)=C(c2ccc(Cl)cc2)C1 [Venetoclax] (first compound max 10 µM, 7x7, partner max 1 µM) | -0.0074 | 0.0323 | -0.032 | -0.0659 | 0.0138 | -0.0885 | 0.067 | -0.054 | -0.0383 | 0.118 | -0.0309 | -0.0225 | -0.0207 |
| Cc1nc(-c2cn3c(n2)-c2ccc(-c4cnn(C(C)(C)C(N)=O)c4)cc2OCC3)n(C(C)C)n1 [Taselisib] + O=C(Nc1ccc2[nH]nc(-c3ccncc3)c2c1)[C@@H]1CCN(CC(=O)N2CCN(c3ccc(-c4ncccn4)cc3)CC2)C1 [SCH772984] (first compound max 10 µM, 7x7, partner max 5 µM) | 0.133 | 0.116 | 0.0269 | 0.0047 | 0.0524 | -0.0386 | -0.0509 | 0.0402 | 0.0252 | 0.102 | 0.334 | 0.033 | -0.0586 |
| CN(CCO)CC[C@H](CSc1ccccc1)Nc1ccc(S(=O)(=O)NC(=O)c2ccc(N3CCC([C@@H](O)c4ccccc4-c4ccc(Cl)cc4)CC3)cc2)cc1S(=O)(=O)C(F)(F)F [AZD4320] + CS(=O)(=O)CCNCc1ccc(-c2ccc3ncnc(Nc4ccc(OCc5cccc(F)c5)c(Cl)c4)c3c2)o1 [Lapatinib] (first compound max 1 µM, 7x7, partner max 10 µM) | 0.0695 | 0.0479 | -0.0144 | -0.0288 | 0.013 | -0.0586 | 0.0465 | – | 0.0904 | -0.0184 | 0.0051 | 0.0959 | 0.0183 |
